Data from patent publication US20260174875A1 (Novo Nordisk A/S, priority 2023, published 2026).
Numbered stars: 1 amine (or outer) side, 2 acyl side, 3 side chain; on linkers, the order of the positions; unused ones are H or OH. Square brackets hold non-standard residues; d marks the D form. Side chains are listed from the residue outwards. * marks the point of attachment. C18 diacid = O=C(O)CCCCCCCCCCCCCCCCC(=O)*; γGlu = O=C(O)[C@H](CCC(=O)[*:2])N[*:1]; AEEA = NCCOCCOCC(=O)O; Aib = CC(C)(N)C(=O)O

Tests used:
[1] = target: T1, human GLP-1 receptor (hGLP-1R) (Homo sapiens, UniProt P43220); test: GLP-1 receptor assay, method B (CRE-luciferase reporter, BHK cells, 384-well); type: cell-based; conditions: hGLP-1R Potency, 1% HSA, EC50, methods B, in the presence of 1% HSA
T1 construct: expressed in transfected cells
T1 sequence (P43220 24-463): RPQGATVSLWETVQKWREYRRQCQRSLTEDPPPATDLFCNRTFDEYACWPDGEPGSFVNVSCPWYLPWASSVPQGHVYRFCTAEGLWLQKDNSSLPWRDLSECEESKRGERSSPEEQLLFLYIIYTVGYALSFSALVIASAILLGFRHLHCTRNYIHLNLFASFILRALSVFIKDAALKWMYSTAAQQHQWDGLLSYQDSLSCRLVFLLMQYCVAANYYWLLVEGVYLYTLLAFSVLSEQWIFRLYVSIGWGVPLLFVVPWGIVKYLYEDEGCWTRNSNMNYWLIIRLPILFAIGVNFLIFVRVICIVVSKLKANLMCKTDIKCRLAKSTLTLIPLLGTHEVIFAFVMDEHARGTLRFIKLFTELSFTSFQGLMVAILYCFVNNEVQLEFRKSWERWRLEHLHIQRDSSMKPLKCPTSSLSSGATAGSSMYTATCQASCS

[2] = target: T2, human GIP receptor (hGIPR) (Homo sapiens, UniProt P48546); test: GIP receptor assay, method B (CRE-luciferase reporter, BHK cells, 384-well); type: cell-based
T2 construct: expressed in transfected cells
T2 sequence (P48546 22-466): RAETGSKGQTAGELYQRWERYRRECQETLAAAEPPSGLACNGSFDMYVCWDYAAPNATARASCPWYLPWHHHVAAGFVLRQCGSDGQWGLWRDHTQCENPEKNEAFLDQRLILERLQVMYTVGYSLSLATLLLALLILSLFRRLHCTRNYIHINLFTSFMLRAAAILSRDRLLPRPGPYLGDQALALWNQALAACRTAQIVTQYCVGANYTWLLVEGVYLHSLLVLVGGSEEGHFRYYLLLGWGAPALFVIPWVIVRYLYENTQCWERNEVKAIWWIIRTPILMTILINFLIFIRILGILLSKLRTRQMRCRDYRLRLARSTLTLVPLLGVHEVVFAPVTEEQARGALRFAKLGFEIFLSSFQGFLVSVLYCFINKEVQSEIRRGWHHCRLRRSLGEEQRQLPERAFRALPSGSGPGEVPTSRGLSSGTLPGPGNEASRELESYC

[3] = target: T3, human amylin receptor (hAMYR3) (Homo sapiens, UniProt O60896+P30988); test: Amylin receptor assay, method B (CRE-luciferase reporter, BHK cells); type: cell-based
T3 construct: host or cells: BHK cells (Hollex-1 line expressing hCTR(a) and CRE-Luc), further transfected with human RAMP3
T3 sequence (P30988 25-474): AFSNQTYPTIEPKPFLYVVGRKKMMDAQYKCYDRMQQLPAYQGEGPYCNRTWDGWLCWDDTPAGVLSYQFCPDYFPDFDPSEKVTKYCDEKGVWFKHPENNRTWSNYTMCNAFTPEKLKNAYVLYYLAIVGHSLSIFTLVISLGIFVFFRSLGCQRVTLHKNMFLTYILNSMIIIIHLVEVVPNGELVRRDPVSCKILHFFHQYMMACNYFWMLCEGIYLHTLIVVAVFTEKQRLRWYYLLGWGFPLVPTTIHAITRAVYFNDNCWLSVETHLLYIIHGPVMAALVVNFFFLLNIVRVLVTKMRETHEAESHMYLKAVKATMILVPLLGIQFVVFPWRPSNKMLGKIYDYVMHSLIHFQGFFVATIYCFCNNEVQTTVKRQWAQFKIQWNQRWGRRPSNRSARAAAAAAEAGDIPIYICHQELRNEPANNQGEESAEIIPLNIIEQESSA
T3 sequence (O60896 24-148): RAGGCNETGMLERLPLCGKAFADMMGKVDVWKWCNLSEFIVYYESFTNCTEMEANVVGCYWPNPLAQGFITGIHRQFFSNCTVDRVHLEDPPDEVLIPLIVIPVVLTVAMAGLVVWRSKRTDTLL
Experimental: To assess how the activation of the receptors is potentially influenced by the presence of human serum albumin (HSA), the in vitro assays were performed in the absence of HSA and presence of 1% (w/v) HSA.
It is thus possible to measure hAMYR3 activity using a CRE-luciferase reporter gene introduced into Baby Hamster Kidney (BHK) cells co-expressing the hAMYR3.
The cell line was further transfected with human receptor modifying protein 3 (RAMP3) using standard methods.
After centrifugation, the cell pellet was resuspended and diluted to approximately 2.5-4.0×10^6 (2.5E+6 to 4.0E+6) cells/mL in Recovery™ Cell Culture Freezing Medium (Gibco, 12648-010). Cells were aliquoted and stored at −180° C. until use.
The assay buffer consisted of DMEM without phenol red (Gibco, 11880-028) supplemented with 1× GlutaMAX (Gibco, 35050-038), 10 mM HEPES (Gibco, 15630-056) and 1% (w/v) ovalbumin (Sigma, A5503) either with or without 0.1% (v/v) Pluronic F-68 (Gibco, 24040-032) and either with or without HSA (Sigma, A9511).
To perform the assay, hAMYR3 BHK Cre-Luc cells were thawed, washed once in PBS (Gibco 14190-094) and seeded in 40 μL growth medium in a white 384-well culture plate (PerkinElmer/Revvity, 6007688) at a cell density of 4.0×10^3 (4.0E+3) cells/well the day before the experiment. The plate was incubated over night at 37° C. in 5% CO2. […] Serial dilutions were then mixed in a new 96-well plate with equal volume (1:1:1 ratio) of assay buffer and either assay buffer without or with 3% HSA (Sigma, A-9511). Twenty microliters of the solution mix were transferred to the cells which previously were washed once with PBS (Gibco 14190-094). After a short centrifugation, the assay plates were incubated for 3 hours at 37° C. in 5% CO2 and let to equilibrated at room temperature for 10 minutes before the addition of 30 μL steadylite Plus™ PerkinElmer/Revvity, 6066759) per well. Plates were sealed and incubated at room temperature with gentle shaking for 30 minutes while protected from light. Luminescence was detected on a luminescence plate reader e.g., a Synergy 2 (BioTek).

[4] = target: T1, human GLP-1 receptor (hGLP-1R); test: GLP-1 receptor assay, method A (CRE-luciferase reporter, BHK cells); type: cell-based
Procedure, shortened: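 BHK cells expressing hGLP-1R with a CRE-luciferase reporter were thawed from frozen stocks and exposed to compound for 3 hours at 37° C in 5% CO2. The assay buffer was phenol red-free DMEM with 10 mM HEPES, 1% (w/v) ovalbumin and 0.1% Pluronic F-68, with or without 1% (w/v) HSA.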

[5] = target: T2, human GIP receptor (hGIPR); test: GIP receptor assay, method A (CRE-luciferase reporter, BHK cells); type: cell-based
Procedure, shortened: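 BHK cells co-expressing hGIPR and a CRE-luciferase reporter were stimulated for 3 h at 37 °C with a 7-point, 10-fold compound titration in duplicate. Buffer was DMEM, 10 mM HEPES, 1% ovalbumin, 0.1% Pluronic F-68, without HSA or with 1% (w/v) HSA. EC50 [pM] came from four-parameter logistic fits of luminescence.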

[6] = target: T3, human amylin receptor (hAMYR3); test: Amylin receptor assay, method A (CRE-luciferase reporter, BHK cells); type: cell-based
[7] = Chemical stability assessment in formulation (UPLC-UV-MS purity loss at 37° C.); type: physicochemical; conditions: 8 mM phosphate buffer pH 7.4, 1 mg/mL, 2 weeks
Procedure, shortened: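 Peptides at target 1 mg/mL in 8 mM phosphate buffer, pH adjusted to 7.4, incubated in capped vials at 37° C. and sampled over 2 weeks, frozen until analysis. Purity followed by UPLC-UV-MS with a 0.1% formic acid water/acetonitrile gradient.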

[8] = hGLP-1R Potency, 1% HSA, EC50, method A, in the presence of 1% HSA
[9] = method A, absence of HSA, read-out: hGLP-1R Potency, no HSA, EC50
[10] = hGIPR Potency, 1% HSA, EC50, method A, in the presence of 1% HSA
[11] = method A, absence of HSA, read-out: hGIPR Potency, no HSA, EC50
[12] = hAMYR3 Potency, 1% HSA, EC50, method A, in the presence of 1% HSA
[13] = method A, absence of HSA, read-out: hAMYR3 Potency, no HSA, EC50

| EC50 [1] [pM] | EC50 ([2]; hGIPR Potency, 1% HSA, EC50, methods B, in the presence of 1% HSA) [pM] | EC50 ([2]; method B, absence of HSA, read-out: hGIPR Potency, no HSA, EC50) [pM] | EC50 ([3]; hAMYR3 Potency, 1% HSA, EC50, methods B, in the presence of 1% HSA) [pM] | EC50 ([3]; method B, absence of HSA, read-out: hAMYR3 Potency, no HSA, EC50) [pM] | EC50 [4, 8] [pM] | EC50 [4, 9] [pM] | EC50 [5, 10] [pM] | EC50 [5, 11] [pM] | EC50 [6, 12] [pM] | EC50 [6, 13] [pM] | Purity loss per week at 37° C. [7] [%] | Compound |
| --- | --- | --- | --- | --- | --- | --- | --- | --- | --- | --- | --- | --- |
| 129 | 20 | 2.9 | 774 | 6.31 |  |  |  |  |  |  |  | CC[C@H](C)[C@H](NC(=O)[C@H](CCC(=O)O)NC(=O)[C@H](CCC(=O)O)NC(=O)[C@H](CC(C)C)NC(=O)[C@H](CC(C)C)NC(=O)[C@@H](NC(=O)[C@H](CO)NC(=O)[C@H](Cc1ccc(O)cc1)NC(=O)[C@H](CC(=O)O)NC(=O)[C@H](CO)NC(=O)[C@@H](NC(=O)[C@H](Cc1ccccc1)NC(=O)[C@@H](NC(=O)CNC(=O)[C@H](CCC(=O)O)NC(=O)C(C)(C)NC(=O)[C@@H](N)Cc1ccc(O)cc1)[C@@H](C)O)[C@@H](C)O)[C@@H](C)CC)C(=O)N[C@@H](C)C(=O)N[C@@H](C)C(=O)N[C@@H](CCCNC(=N)N)C(=O)N[C@@H](CCC(=O)O)C(=O)N[C@@H](Cc1ccccc1)C(=O)N[C@H](C(=O)N[C@@H](CCC(=O)O)C(=O)N[C@@H](Cc1c[nH]c2ccccc12)C(=O)N[C@@H](CC(C)C)C(=O)N[C@@H](CC(C)C)C(=O)N[C@@H](C)C(=O)NCC(=O)NCC(=O)N1CCC[C@H]1C(=O)N[C@@H](CO)C(=O)N[C@@H](CO)C(=O)NCC(=O)N[C@@H](C)C(=O)NCC(=O)N[C@@H](CCC(N)=O)C(=O)N[C@@H](C)C(=O)N1CCC[C@H]1C(=O)NCC(=O)N[C@@H](CCC(N)=O)C(=O)N[C@@H](C)C(=O)N1CCC[C@H]1C(=O)NCC(=O)N[C@@H](C)C(=O)N[C@@H](CO)C(=O)N[C@@H](Cc1c[nH]cn1)C(=O)N[C@@H](CC(C)C)C(=O)N[C@@H](CO)C(=O)N[C@H](C(=O)N[C@@H](C)C(=O)N[C@@H](CCC(N)=O)C(=O)N[C@H](C(=O)N[C@@H](CCC(N)=O)C(=O)N[C@@H](CCCNC(=N)N)C(=O)N[C@@H](CC(C)C)C(=O)N[C@@H](CO)C(=O)N[C@@H](C)C(=O)N[C@@H](CCC(=O)O)C(=O)N[C@@H](CC(C)C)C(=O)N[C@@H](Cc1c[nH]cn1)C(=O)N[C@@H](CCCCNC(=O)COCCOCCNC(=O)COCCOCCNC(=O)CC[C@H](NC(=O)CCCCCCCCCCCCCCCCCCC(=O)O)C(=O)O)C(=O)N[C@@H](CC(C)C)C(=O)N[C@@H](C)C(=O)N[C@H](C(=O)N[C@@H](CC(C)C)C(=O)N1CCC[C@H]1C(=O)N[C@@H](CCCNC(=N)N)C(=O)N[C@H](C(=O)N[C@@H](CCC(=O)O)C(=O)N[C@H](C(=O)NCC(=O)N[C@@H](CO)C(=O)NCC(=O)N[C@@H](CO)C(=O)N1CCC[C@H]1C(N)=O)[C@@H](C)O)[C@@H](C)O)[C@@H](C)O)[C@@H](C)O)[C@@H](C)O)[C@@H](C)CC [Compound 120] |
|  |  |  |  |  | 67.5 | 3.15 | 162 | 2.02 | 55.8 | 2.57 | 2.6 | H[Aib]HGTFTSDYSILLEEQAAREFIEWLLAGGPSK([AEEA-AEEA-γGlu-C18 diacid])GAGQAPGQAPGASHLSTAQTQRLSAELHELATLPRTETGSGSP-NH2 [Compound 47] |
|  |  |  |  |  | 100 | 4.86 | 118 | 1.89 | 127 | 2.84 | 2.1 | H[Aib]HGTFTSDYSILLEEQAAREFIEWLLAGGPSK([AEEA-AEEA-γGlu-C18 diacid])GEASQLSTAALGRLSAELHGLATLPRTETGSGSP-NH2 [Compound 65] |
|  |  |  |  |  | 54.1 | 4.55 | 96.5 | 4.98 | 61.5 | 1.99 | 2.8 | H[Aib]HGTFTSDYSILLEEQAAREFIEWLLAGGPSK([AEEA-AEEA-γGlu-C18 diacid])GEASQLSTAALGRLSAELHRLATLPRTETGSGSP-NH2 [Compound 73] |
|  |  |  |  |  | 13.4 | 2.55 | 8.53 | 3.12 | 75.1 | 2.64 | 2.8 | H[Aib]HGTFTSDYSILLEEQAAREFIEWLLAGGPSSGAGQAPGQAPGASHLSTAQTQRLSAELHRLATLPK([AEEA-AEEA-γGlu-C18 diacid])TETGSGSP-NH2 [Compound 92] |
|  |  |  |  |  | 30.3 | 3.52 | 14.6 | 2.71 | 250 | 4.4 | 2.0 | H[Aib]HGTFTSDYSILLEEQAAREFIEWLLAGGPSSGEASHLSTAQTQRLSAELHK([AEEA-AEEA-γGlu-C18 diacid])LATLPRTETGSGAP-NH2 [Compound 85] |
|  |  |  |  |  | 25.9 | 3.31 | 11.6 | 3 | 175 | 4.41 | 2.9 | H[Aib]HGTFTSDYSILLEEQAAREFIEWLLAGGPSSGEASHLSTAQTQRLSAELHRLATLPK([AEEA-AEEA-γGlu-C18 diacid])TETGSGSP-NH2 [Compound 84] |
|  |  |  |  |  | 9.89 | 2.3 | 13.6 | 2.92 | 45.7 | 2.9 | 2.3 | H[Aib]HGTFTSDYSILLEEQAAREFIEWLLAGGPSSGEASHLSTAQTQRLSAELHRLK([AEEA-AEEA-γGlu-C18 diacid])TLPRTETGSGSP-NH2 [Compound 83] |
